Test results reported in patent US11266743B2, “Peptide compositions and methods of use thereof” (priority 2017, dated 2022).
Square brackets hold non-standard residues; d marks the D form. Ends that are not written are not given here.

Key:
Type in all cases: cell-based
[1] = test system: Hela cells stably transfected with mCherry and GFP1-10; assay: Split GFP assay (GFP-11 delivery); settings: for GFP fluorescence above background / GFP fluorescence level: 10 μM; for GFP-11 delivery: all concentrations and temperatures studied
Method: To test the ability of CPPs to deliver other cargoes, specifically a protease-sensitive peptide cargo, we modified the well-known split-GFP assay. CPPs were tested for the ability to deliver the polar 16-residue GFP-11 peptide across the membrane barrier. This peptide rescues the fluorescence of the cytosolic endogenous, non-fluorescent GFP1-10 protein. Here, we stably transfected Hela cells with a plasmid containing the full length mCherry and the non-fluorescent GFP1-10. Following incubation with CPP-GFP-11 constructs at multiple concentrations and temperatures for 30 minutes in serum free DMEM, cells were analyzed by flow cytometry for mCherry and GFP fluorescence (FIG. 17). Live cells expressing mCherry (˜50% of the total cells) were gated and their GFP fluorescence was analyzed. Unlike the luciferase splice correction assay where a single corrected mRNA transcript serves as template for many molecules of functional luciferase, the split GFP assay is stoichiometric; a single GFP-11 peptide can bind to a single GFP1-10 protein producing a finite fluorescent response.
Hela cells were transfected with p_mCherry-GFP1-10 (Addgene plasmid #78591) using LIPOFECTAMINE® 3000 (ThermoFisher). Single mCherry positive cells were sorted into 96-well plates using a BD™ FACSARIA™ cell sorter and colonies were maintained under G418 selection at […]. Stably transfected cells were plated in 12-well plates at 100,000 cells/well and grown overnight in complete DMEM. Cells were washed in PBS and incubated in 500 μl of CPP-GFP-11 solution at variable concentrations at 23° C. and 37° C. for 30 minutes. The CPP-GFP-11 solution was aspirated and 100 μl of 0.025% trypsin solution was added to each well. After detachment, cells were suspended in 500 μL of PBS+2% FBS and 20 mM HEPES. Cells were analyzed using a BD™ LSRII flow cytometer. Cells displaying a normal morphology were gated and first analyzed for mCherry fluorescence using the 543 nM laser. mCherry+ cells were used to generate a histogram of GFP fluorescence measured with the 488 nM laser.

[2] = test system: HeLa, RAW264.7, HepG2, and MCF-7 cells; assay: TAMRA delivery assay (flow cytometry, confocal microscopy); settings: 0.5 μM CPP-TA + 4.5 μM CPP-C, 30 minutes at 4° C., 22° C., or 37° C.
Method: To determine the effect of the PNA cargo on delivery, we labeled CPPs, lacking the PNA705 cargo, with the fluorophore TAMRA on a C-terminal cysteine residue (CPP-TA) and measured delivery to multiple cell types. TAMRA-labelled CPPs, mixed with unlabeled CPPs at a 1:10 ratio in serum-free DMEM for a final concentration of 5 μM total peptide, was added to HeLa, RAW264.7, HepG2, and MCF-7 cells in 12-well cell culture plates and incubated for 30 minutes at 4° C., 22° C., or 37° C. prior to flow cytometric analysis (FIGS. 9-16). […] Delivery of TAMRA was verified by confocal microscopy for each cell type.
Hela, RAW264.7, HCT116, HepG2, and MCF-7 cells were plated in 12-well plates at 100,000 cells/well. After 24 hours, cells were gently washed in PBS, topped with 500 μl of CPP-TA solution containing 0.5 μM CPP-TA+4.5 uM CPP-C in sfDMEM without phenol red, and incubated for 30 min at either 4° C., 23° C., or 37° C. The incubation solution was aspirated and cells were treated with 100 μl 0.025% Trypsin for 3 minutes at 23° C. 500 μl DMEM containing 2% FBS, 125 nM Sytox Green, and 20 mM HEPES was used to suspend the cells. Cells were transferred to a filter-topped flow cytometry tube and analyzed on a BD™ LSR II flow cytometer. Cells displaying a normal morphology were gated and first analyzed for GFP fluorescence using the 488 nM laser. GFP negative cells were used to generate a histogram of TAMRA fluorescence, measured with the 543 nM laser.
Cells were treated as described above for the TAMRA delivery assay and immediately imaged to avoid artifacts resulting from fixation. The distribution of TAMRA and Sytox Green was analyzed using a confocal scanning Nikon Eclipse Ti2 inverted microscope using a 40× oil-immersion objective. Sytox Green was excited using the 488 nM laser and TAMRA was excited using the 543 nM laser.

Hela pTRE-LucIVS2 cells = assay: ALAMARBLUE toxicity assay of CPP-PNA705; settings: 10 μM CPP-PNA705 conjugate, after 24 hours
Method: CPP-PNA705 cytotoxicity was assessed using several methods known in the art. A Lactate Dehydrogenase (LDH) assay (FIG. 5A) measured the acute cytotoxicity and detects LDH released by cells because of membrane damage resulting from exposure to the CPPs. An ALAMARBLUE® assay (FIG. 5B) and a Bicinchoninic Acid (BCA) Assay (FIG. 5C) both measure the impact of exposure after 24 hours. In the ALAMARBLUE®, assay some reduction in metabolic activity was detected in Hela705 cells treated with 20 μM CPP-PNA705 concentrations for 1 hour.
Hela pTRE-LucIVS2 cells were plated in 96-well plates at 10,000 cells/well. After 24 hours, cells were treated with CPP constructs for 1 Hr in sfDMEM at 37° C., washed in PBS, and allowed to recover for 24 hours in 100 μl complete media. 10 μl ALAMARBLUE® (ThermoFisher) was added to each well and cells were incubated fo4r 2 Hrs at 37° C. Reduction of ALAMARBLUE® was determined by fluorescence at […].

S. aureus = assay: Radial diffusion in the presence of RBCs; set-up: key: The ↑ represents the improvement in performance that would be desired for a viable in vivo antimicrobial peptide; ↓: The symbol represents a regression in desired behavior; *=p<0.05; **=p<0.01; ***=p<0.001; settings: change versus parent sequence; paired t-test
Method: Underlay agarose was prepared by adding 5 g of low EEO agarose and 0.03 g of TSB to 500 mL of 10 mM phosphate buffer (pH=7.4). Overlay agarose was prepared by adding 5 g of low EEO agarose and 30 g of TSB to 500 mL of 10 mM phosphate buffer (pH=7.4). Both solutions were heated until the agarose melted and then were autoclaved. To a rectangular, one-well plate, 20 mL of underlay agarose, inoculated with 8×10^6 CFUs of bacteria, was added. A sterile, 96-well plate replicator from Sigma-Aldrich was set in the molten agarose and removed one the agarose solidified. Antibiotic was prepared at 4 times the final desired concentration. For the antibiotic standard, a serial dilution of 3:4 across a 96-well plate was performed followed by 1:4 dilution with PBS. Otherwise, the peptide was diluted to 20 μM with RBCs and/or serum to give between 2% (1×10^8 cells/mL) and 20% (1×10^9 cells/mL). Solutions were incubated with gentle shaking for 30 minutes at 37° C. […]. Overlay was added, and the plate was incubated upside down overnight. Surface growth was cleared, the plates were sterilized with 25% methanol and 5% acetic acid. Zones of inhibition were photographed and analyzed using ImageJ. (FIG. 21)
(§1) The engineered peptide sequences and their derivation from parent sequences is shown, along with the underlying hypothesis described for the first set of peptides (Table 4) and the second set (Table 5). We performed statistical testing for performance in antimicrobial assays in the presence and absence of RBCs, as well as for cytotoxicity. The broth dilution results were tested using a two sample t-test (N=6-22). The radial diffusion results were tested using a paired t-test (N=4). The cytotoxicity results were tested using a paired t-test (N=3). The ↑ represents the improvement in performance that would be desired for a viable in vivo antimicrobial peptide. This corresponds to a decrease in MIC values (increased potency) and decreased cytotoxicity. The symbol represents a regression in desired behavior. (*=p<0.05, **=p<0.01, ***=p<0.001).

human RBCs = assay: Hemolysis assay; set-up: key: The ↑ represents the improvement in performance that would be desired for a viable in vivo antimicrobial peptide; ↓: The symbol represents a regression in desired behavior; *=p<0.05; **=p<0.01; ***=p<0.001; settings: change versus parent sequence; ↑ = improvement (decreased cytotoxicity); paired t-test
Method: Peptide was serially diluted in PBS starting at a concentration of 100 μM. The final volume of each peptide in each well was 50 μL. To each well, 50 μL of RBCs in PBS at 2×10^8 cells/mL was added. As a positive lysis control, 1% TRITON™ was used. The mixtures were incubated at 37° C. for 1 hour, after which they were centrifuged at 1000×g for 5 minutes. After centrifugation, 10 μL of supernatant was transferred to 90 μL of DI H2O in a fresh 96-well plate. The absorbance of released hemoglobin at 410 nm was recorded and the fractional hemolysis was calculated based on the 100% and 0% lysis controls. (FIGS. 22, 23, and 26)
as §1

CPP-1(D)-GFP-11: D-amino acid version of CPP-1 attached to normal L-amino acid GFP-11 ([dR][dK][dK][dR][dW][dF][dR][dR][dR][dR][dP][dK][dW][dK][dK]RDHMVLHEYVNAAGIT)
D-form CPP versus L-form CPP, GFP-11 delivery [1]: outperformed CPP-1-GFP-11 under all other conditions

CPP-1-GFP-11: CPP-1 linked to the polar 16-residue GFP-11 peptide (SEQ ID NO: 12) (RKKRWFRRRRPKWKKRDHMVLHEYVNAAGIT)
GFP fluorescence above background ([1]; 37° C.): 44% | GFP fluorescence above background ([1]; room temperature): 72%

CPP-2-GFP-11: CPP-2 linked to the 16-residue GFP-11 peptide (SEQ ID NO: 12) (GRKKRWFRRRRMKWKKRDHMVLHEYVNAAGIT)
GFP fluorescence level [1]: background fluorescence levels

CPP-3-GFP-11: CPP-3 linked to the 16-residue GFP-11 peptide (SEQ ID NO: 12) (RIKRRFRRLRPKWKKRDHMVLHEYVNAAGIT)
GFP fluorescence level [1]: background fluorescence levels

GRKKRWFRRRRMKWKK [CPP-2]
TAMRA delivery (words, rank order) [2]: CPP-2»CPP-3=CPP-1>CPP-4>TAT=penetratin | GFP-11 delivery [1]: deliver GFP-11 to more cells than Tat and penetratin | reduction in metabolic activity (Hela pTRE-LucIVS2 cells): 10%

KKGWAKKLAFAFGKK [D-KON]
Radial Diffusion vs. S. aureus (S. aureus): ↓Radial diffusion vs.

RIKRRFRRLRPKWKK [CPP-3]
TAMRA delivery (words, rank order) [2]: CPP-2»CPP-3=CPP-1>CPP-4>TAT=penetratin | GFP-11 delivery [1]: deliver GFP-11 to more cells than Tat and penetratin | reduction in metabolic activity (Hela pTRE-LucIVS2 cells): little effect

RRGWAFRRALAYGRR [D-GNS2]
Radial Diffusion vs. S. aureus (S. aureus): ↑Radial diffusion vs. | Hemolysis (human RBCs): ↓Hemolysis**

RRGWALRLVLAYGRR [RAT3]
Hemolysis (human RBCs): ↓Hemolysis*

RRGWARRLAFAFAFGRR [RAT6]
Hemolysis (human RBCs): ↓Hemolysis*

RRGWARRLAFAFGRR [D-RAT4]
Radial Diffusion vs. S. aureus (S. aureus): ↑Radial Diffusion vs.

RRGWARRLAFAFGRR [RAT4]
Radial Diffusion vs. S. aureus (S. aureus): ↑Radial Diffusion vs. | Hemolysis (human RBCs): ↑Hemolysis*

RRGWARRLAFGRR [RAT7]
Hemolysis (human RBCs): ↑Hemolysis**

RRGWARRLFFAYGRR [D-DBS1]
Radial Diffusion vs. S. aureus (S. aureus): ↑Radial diffusion vs. | Hemolysis (human RBCs): ↓Hemolysis*

RRGWARRLRLAFAFGRR [RAT5]
Radial Diffusion vs. S. aureus (S. aureus): ↑Radial Diffusion vs. | Hemolysis (human RBCs): ↓Hemolysis*

RRWARRLFFAYRR [RAT1]
Radial Diffusion vs. S. aureus (S. aureus): ↑Radial Diffusion vs.

RRWNLALTLTYYRR [RAT2]
Hemolysis (human RBCs): ↓Hemolysis*

Tat(D)-GFP-11: D-amino acid version of Tat attached to normal L-amino acid GFP-11 (G[dR][dK][dK][dR][dR][dQ][dR][dR][dR][dP][dP][dQ]RDHMVLHEYVNAAGIT) [reference compound]
GFP fluorescence ([1]; concentrations lower than 40 μM): just above background
